Results on two compounds are retold here after US6365652B2, “Trisaryl-1,3,5-triazine ultraviolet light absorbers” (Ciba Specialty Chemicals Corporation, priority 1997, dated 2002).

Data set [1] in a line: Solubility in solvent mixture (1:1:1 xylenes:MAK:PM acetate). In kind it is physicochemical. From the text:
Compound E (the disubstituted amide) was compared against Compound B (the monosubstituted amide) for solubility in a 1:1:1 mixture of xylenes:methyl amyl ketone (MAK):propylene glycol methyl ether acetate (PM acetate), which is a typical coatings solvent mixture.

A short description of data set [2]: Compatibility with acrylic urethane Component I (polyol component of two-component clearcoat). The format is physicochemical. To be noted: for Compatibility in fully formulated coating: after addition of DESMODUR N-3390 and 17 parts solvent mixture. From the text:
Compound E was again compared against Compound B, this time for compatibility in the following resin formulation which is the polyol component of a typical two-component acrylic urethane clearcoat formulation:
100 parts Acrylic Resin—JONCRYL® CDX-588 (70% Solids) (S.C. Johnson & Son, Inc., Racine, Wis.
5 parts—1 part Dibutyltin Dilaurate (T-12, Air Products, Allentown, Pa.)
45 parts Solvent Mixture (1:1:1 xylenes:MAK:PM Acetate)
1 part Hindered Amine Light Stabilizer (SANDUVOR® S-3055, Clariant Corp., Charlotte, N.C.).

The nature of data set [3]: QUV accelerated weathering (UVB-313 bulbs) of acrylic urethane clear coat. To be noted: Example 10. An excerpt: Compounds D and E were formulated in clear coatings which were applied to panels for accelerated weathering testing as follows. Compound D or E (1% or 2% based on total resin solids) and/or SANDUVOR® S-3055 HALS-type stabilizer (1% based on total resin solids) were predissolved in the solvent mixture (to a 5-10% solids level) and added to the clear acrylic urethane formulation given in Table 3 below. Components I and II were mixed just before use. Cold roll steel panels measuring 4″×12″ and precoated with an electro-coat primer ED505A and a white polyester acrylic melamine base-coat #542AB839, obtained from ACT Laboratories, Inc. (Hillsdale, Mich.) were coated with the clear coating formulations of Table 3. The draw-down technique, using WC-60 WireCators™ (Leneta Co., Hohokus, N.J.), was used to apply the clear coat to the pre-coated panels. The clear coats were allowed to flash for 10 min at ambient temperature and cured for 30 min at 135° C.
Accelerated weathering was carried out on the clear coating formulations using a QUV device equipped with UVB-313 fluorescent bulbs. […] Specular properties such as gloss ([…], ASTMD523) and distinctness of image (“DOI”) (Dorigon Meter D47R-6FT, Hunter Associate Laboratory) and yellowing (“Delta b”) were measured as a function of weathering time. […]

The nature of data set [4]: Bonding/migration in acrylic/melamine clearcoat on RIM substrate, microtome UV depth profile at 340 nm. The following applies: 3% on total resin solids, cure 30 min at 135° C. The protocol: Compound E was investigated to determine whether it forms a chemical bond with the acrylic/melamine resin matrix during curing. For this purpose, it was added to a clearcoat formulation and coated onto a plastic substrate, as described below. Non-bondable UV absorbers readily migrate from clearcoats into plastic substrates upon curing the coating. An absorber which bonds to the matrix should not migrate into the plastic substrate to any significant extent.
The acrylic/melamine resin formulation utilized was as follows: […]
40.6 g JONCRYL® 510 acrylic resin (S.C. Johnson, Inc. Racine, Wis.)
17.5 g CYMEL® 303 crosslinker (Cytec Industries, Inc., West Paterson, N.J.)
0.52 g CYCAT® 4040 catalyst (Cytec Industries, Inc., West Paterson, N.J.)
0.50 g DC 57 flow control agent […]
After cure, the coating and part of the substrate were microtomed into 10 μm thick slices parallel to the coating surface. […] Each microtomed slice was mounted between two microscope slides and its UV absorption spectrum measured using a Perkin-Elmer Lambda 2 spectrophotometer. The absorbance per micrometer sample thickness was determined at the prominent 340 nm absorption band intrinsic to this UVA.
The results of the UV analysis were plotted as a function of depth. […] By measuring the area under the curve, the quantity of Compound E remaining in the coatings and the fraction that migrated into the substrates were estimated. […]

[5] abbreviates: 1 wt % on total resin solids, 5° C.
The mark [6] stands for this setting: 1 wt % on total resin solids, 23° C.
The mark [7] stands for this setting: 1 wt % on total resin solids, 60° C.

For the compound `Cc1ccc(-c2nc(-c3ccc(C)cc3C)nc(-c3ccc(OCC(=O)NCCO)cc3O)n2)c(C)c1` [Compound B, 4-[4,6-Bis(2′4′-dimethylphenyl)-1,3,5-triazin-2-yl]-3-hydroxyphenoxyacetic acid, N-(2-hydroxyethyl)amide, reference compound], the Solubility entry in data set [1] (5 wt %, 5° C.) is “No”; in data set [1] (5 wt %, 23° C.) it was “No”; in data set [1] (5 wt %, 50° C.), “did not dissolve”; in data set [1] (5 wt %, 50° C., listed as CEX1 (B)), “No”. The Compatibility result is on record as “not compatible” in data set [2] (setting [5]); “No” in data set [2] (1 wt % on total resin solids, 5° C., listed as CEX1 (B)); “not compatible” in data set [2] (setting [6]); “No” in data set [2] (1 wt % on total resin solids, 23° C., listed as CEX1 (B)); “not compatible” in data set [2] (setting [7]); “No” in data set [2] (1 wt % on total resin solids, 60° C., listed as CEX1 (B)). Further, in data set [2], the “Compatibility in fully formulated coating” value is on record as “did not result in the dissolution”.
`CCCCN(CCO)C(=O)COc1ccc(-c2nc(-c3ccc(C)cc3C)nc(-c3ccc(C)cc3C)n2)c(O)c1` [Compound E, 4-[4,6-Bis(2′4′-dimethylphenyl)-1,3,5-triazin-2-yl]-3-hydroxyphenoxyacetic acid, N-(n-butyl)-N-(2-hydroxyethyl)amide]: the Solubility result in data set [1] (5 wt %, 5° C.) was “Yes”; in data set [1] (5 wt %, 23° C.), “Yes”; in data set [1] (5 wt %, 50° C.) it was “Yes”; in data set [1] (10 wt %, 5° C.), “did not crystallize out of solution”; in data set [1] (10 wt %, 5° C., listed as EX1 (E)), “Yes”; in data set [1] (10 wt %, 23° C.) it was “Yes”. Also, the Solubility entry in data set [1] (10 wt %, 50° C.) is “Yes”. The “Dissolution in the solvent mixture” value in data set [1] (10 wt %, temperature not stated) was “fully dissolved”. Also, the “Lifetime of coating compositions (percent gloss retention, percent DOI retention, delta b) compared to the unstabilized composition” value in data set [3] is reported as “extend the lifetime”. Further, in data set [4], the “Fraction of added compound remaining in the coating” value is given as “about 95%”. The Compatibility result in data set [2] (setting [5]) is “Yes”; in data set [2] (setting [6]), “Yes”; in data set [2] (setting [7]), “Yes”; in data set [2] (2 wt % on total resin solids, 5° C.), “Yes”; in data set [2] (2 wt % on total resin solids, 23° C.), “Yes”; in data set [2] (2 wt % on total resin solids, 60° C.), “Yes”. Further, the “Compatibility with the resin component” value in data set [2] (5° C., concentration not given) is “compatible”. Moreover, in data set [2], the “Compatibility in fully formulated coating” value was “nor did it adversely affect the compatibility”.
